From BindingDB's records for doi:10.1016/s0960-894x(02)00064-1 (University of Lyon 1, 2002)

What was measured:
[1] = biological target: Toxoplasma gondii purine nucleoside phosphorylase (Toxoplasma gondii); experiment: Compound was evaluated for its binding affinity against Toxoplasma gondii purine nucleoside phosphorylase of virulent strain RH (value indicates competitive inhibition)
[2] = biological target: Toxoplasma gondii purine nucleoside phosphorylase (Toxoplasma gondii); experiment: as above; remark: listed apart in the source
[3] = biological target: Toxoplasma gondii purine nucleoside phosphorylase (Toxoplasma gondii); experiment: Compound was evaluated for its binding affinity against Toxoplasma gondii purine nucleoside phosphorylase from cystic strain ME 49 (value indicates competitive inhibition)
[4] = biological target: Toxoplasma gondii purine nucleoside phosphorylase (Toxoplasma gondii); experiment: Compound was evaluated for its binding affinity against Toxoplasma gondii purine nucleoside phosphorylase of virulent strain RH (value indicates Non competitive inhibition)
[5] = biological target: Toxoplasma gondii purine nucleoside phosphorylase (Toxoplasma gondii); experiment: Compound was evaluated for its binding affinity against Toxoplasma gondii purine nucleoside phosphorylase from cystic strain ME 49 (value indicates Non competitive inhibition)

O=c1[nH]cnc2c1cnn2[C@@H]1O[C@H](CO)[C@@H](O)[C@H]1O
Ki [1]: 2000 µM
Ki [2]: 1800 µM

O=C1C=CC(=O)c2c1nc(Cc1ccccc1)n2Cc1ccccc1 [1,2-Dibenzyl-1H-benzoimidazole-4,7-dione]
Ki [2]: 670 µM
Ki [3]: 350 µM

O=C1C=CC(=O)c2c1ncn2Cc1ccccc1F [1-(2-Fluoro-benzyl)-1H-benzoimidazole-4,7-dione]
Ki [4]: 1480 µM
Ki [5]: 1500 µM

O=C1C=CC(=O)c2c1ncn2Cc1cccc(F)c1 [1-(3-Fluoro-benzyl)-1H-benzoimidazole-4,7-dione]
Ki [4]: 990 µM
Ki [5]: 520 µM

O=C1C=CC(=O)c2c1ncn2Cc1ccc(F)cc1 [1-(4-Fluoro-benzyl)-1H-benzoimidazole-4,7-dione]
Ki [4]: 780 µM
Ki [5]: 990 µM

Cc1nc2c(n1Cc1ccccc1)C(=O)C=CC2=O [1-Benzyl-2-methyl-1H-benzoimidazole-4,7-dione]
Ki [1]: 1050 µM
Ki [3]: 300 µM

CCCCn1cnc2c1C(=O)C=CC2=O [1-Butyl-1H-benzoimidazole-4,7-dione]
Ki [4]: 2960 µM
Ki [5]: 560 µM

Cn1cnc2c1C(=O)C=CC2=O [1-Methyl-1H-benzoimidazole-4,7-dione]
Ki [4]: 2210 µM

O=C1C=CC(=O)c2[nH]cnc21 [1H-Benzoimidazole-4,7-dione]
Ki [4]: 1650 µM
Ki [5]: 550 µM
